Results on 65 molecules are retold here after PubChem BioAssay AID435014 (Vanderbilt High Throughput Screening Facility, 2010).

Structures are written as SMILES. The source made the active and inactive calls.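 How the source made its calls: active means dose response that fits an S-shaped curve with fit quality R squared above 0.5; inactive means the rest.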

The target of the first assay is G protein-activated inward rectifier potassium channel 1 (Rattus norvegicus) (UniProt P63251). In words: alpha2C activation measured by GIRK thallium influx – cell-based, thallium flux, dose response (AID 435014). The settings on record: HEK293 alpha2C/GIRK1/2, thallium flux fluorescence.
Chain of G protein-activated inward rectifier potassium channel 1 (Rattus norvegicus) (P63251 whole entry, looked up): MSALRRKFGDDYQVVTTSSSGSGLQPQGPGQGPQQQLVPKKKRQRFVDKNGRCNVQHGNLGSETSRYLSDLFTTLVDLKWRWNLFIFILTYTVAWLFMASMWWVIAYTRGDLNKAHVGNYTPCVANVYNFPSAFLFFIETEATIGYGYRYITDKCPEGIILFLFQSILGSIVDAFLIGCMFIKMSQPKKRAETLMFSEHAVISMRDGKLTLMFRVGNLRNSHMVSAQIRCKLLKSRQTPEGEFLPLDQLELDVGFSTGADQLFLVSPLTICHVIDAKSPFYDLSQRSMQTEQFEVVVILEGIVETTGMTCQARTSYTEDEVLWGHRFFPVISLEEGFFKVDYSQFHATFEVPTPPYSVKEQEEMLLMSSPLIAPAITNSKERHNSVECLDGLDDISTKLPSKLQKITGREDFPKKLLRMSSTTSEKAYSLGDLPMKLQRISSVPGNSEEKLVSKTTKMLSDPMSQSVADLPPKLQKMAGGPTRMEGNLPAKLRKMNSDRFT
Broadly, the EC50 is the concentration at which the effect is half-maximal. As to `Cc1c2ccncc2c(C)c2c1[nH]c1ccccc12`, the EC50 is 3.08 µM.
For the molecule `Brc1c(NC2=NCCN2)ccc2nccnc12`, the EC50 was 0.082 µM.
The same measure, in the same setting: then `CN(C)c1ccc(/C=C/C(O)=C2/C(=O)N(C)C3(C)CC2c2ccccc2O3)cc1` (stereo not given), with 1.99 µM.
On the same count and under the same terms, the result for `C[C@H]1OC[C@@H](C[N+](C)(C)C)O1` reads 0.393 µM.
On the same count and under the same terms, the result for `CC(=O)OCC[N+](C)(C)C` reads 0.134 µM.

Still in this assay, the particulars now being: HEK293 alpha2C/GIRK1/2, thallium flux fluorescence; at 10 µM (top of the series).
With `COc1ccc(-c2noc(CCC(=O)Nc3nc4ccccc4s3)n2)cc1`, the activation result was “inactive”.
The same measure, in the same setting: the result for `CC1(C)Cc2c(C#N)c(SCCOc3ccccc3)nc(N3CCOCC3)c2CO1` reads “inactive”.
The same measure, in the same setting: the result for `COC(=O)c1c(NC(=O)c2nn(C)cc2Cl)sc2c1CCCC2` reads “inactive”; that for `O=S(=O)(c1ccc(S(=O)(=O)N(Cc2ccco2)Cc2ccccc2Cl)cc1)N1CCCC1`, “inactive”; that for `CCc1cc2c(=O)c(-c3ccc4c(c3)OCCO4)coc2cc1OC(=O)c1ccco1`, “inactive”.
As to `Cc1ccc(SCc2c(C#N)c3ccccc3n2C)cc1`, the activation entry is “inactive”.
Turning to `COC(=O)c1ccc(-c2sc3nc(N4CCOCC4)c4c(c3c2N)CCCC4)o1`, the activation entry is “inactive”.
Still for that read-out and setting: the result for `CCOC(=O)c1sc(NC(=O)c2noc3c2CCCC3)c(C(=O)OCC)c1C` reads “inactive”; that for `O=S(=O)(c1ccccc1)N(Cc1nc(-c2ccccc2)no1)C1CCCCC1`, “inactive”; that for `COC(=O)c1ccccc1NC(=O)c1noc2c1CC(C(C)(C)C)CC2` (stereo not given), “inactive”.
The same measure, in the same setting: then `COc1ccc(-c2oc3ncn4nc(Cc5ccccc5)nc4c3c2-c2ccc(OC)cc2)cc1`, with “inactive”.
For the molecule `CCOc1nc(-c2ccccc2)ccc1-c1noc(-c2ccc(OC)c(OC)c2)n1`, the activation result was “inactive”.
On the same count and under the same terms, then `Cc1ccc(-c2cc(C(F)F)nc(N3CCC(C)CC3)n2)cc1`, with “inactive”; and `COc1cc(C(=O)Nc2cccc(-c3nc4cc(C)ccc4o3)c2)cc(OC)c1OC`, with “inactive”; and `COc1ccc(CN(C(=O)CSc2nnc(-c3ccccc3F)o2)c2ccc(F)cc2)cc1`, with “inactive”.
The same measure, in the same setting: then `COc1ccc(-c2noc(-c3cc(Cl)ccc3Cl)n2)cc1OC`, with “inactive”.
In the case of `COc1cccc2c1C(=O)c1c(O)c3c(c(O)c1C2=O)C[C@@](O)(C(C)=O)C[C@@H]3O[C@H]1C[C@H](N)[C@H](O)[C@H](C)O1`, the activation result is “inactive”.
The same measure, in the same setting: the result for `C=CCOC(=O)C1=C(C)NC(SCC(=O)Nc2ccc(C)c(Cl)c2)=C(C#N)C1c1ccco1` (stereo not given) reads “inactive”.
Same read-out and setting: then `c1ccc2c(-c3nc(C4CCCCC4)no3)cc(-c3ccncc3)nc2c1`, with “inactive”; and `COC(=O)c1ccccc1NC(=O)c1ccc(-c2ccccc2F)o1`, with “inactive”; and `CSc1nc2sc3c(c2c(=O)[nH]1)CCC(C)C3` (stereo not given), with “inactive”.
The same measure, in the same setting: then `C/C(Cl)=C/Cn1c(SCc2ccc(Cl)cc2)nc2c1c(=O)[nH]c(=O)n2C`, with “inactive”; and `CCOC(=O)CSc1nc2cc(C(=O)NCc3ccco3)ccc2c(=O)n1-c1ccc(F)cc1`, with “inactive”.
For the molecule `CCOc1ccc2nc(NC(=O)CSc3nc4ccccc4c(=O)n3Cc3ccco3)sc2c1`, the activation entry was “inactive”.
In the case of `CCCOc1ccc(-c2nnn(CC(=O)Nc3cccc(C(=O)OC)c3)n2)cc1`, the activation entry is “inactive”.
On the same count and under the same terms, the result for `CCOC(=O)c1c(-c2ccc(C)o2)csc1NC(=O)COC(=O)c1cccs1` reads “inactive”; that for `COCCOC(=O)c1c(C)oc2ccc(OC(=O)COc3c(F)c(F)c(F)c(F)c3F)cc12`, “inactive”.
Still for that read-out and setting: the result for `C[C@]12CC[C@@H]3c4ccc(OC(=O)c5ccccc5)cc4CC[C@H]3[C@@H]1CC[C@@H]2O` reads “inactive”.
On the same count and under the same terms, the result for `CC1(C)Cc2c(c(N3CCOCC3)nc3sc4c(NCc5ccco5)nnnc4c23)CS1` reads “inactive”; that for `CCSc1nnc(NC(=O)NC(CC)(C(F)(F)F)C(F)(F)F)s1`, “inactive”; that for `COc1ccc(-c2oc3ncn4nc(COc5ccccc5)nc4c3c2-c2ccc(OC)cc2)cc1`, “inactive”.
As to `Cc1sccc1C1C(C#N)=C(N)SC(N)=C1C#N`, the activation result is “inactive”.
On to `Cc1ccc2c(C)nc(Nc3nc(CSc4nnnn4-c4ccccc4)cc(=O)[nH]3)nc2c1`, for which the activation entry was “inactive”.
Take `C=CCn1c(=S)[nH]c2ccccc2c1=O`: the activation entry was “inactive”.
For the molecule `CCCSc1nc(N2CCOCC2)c2c(c1C#N)CCCC2`, the activation result is “inactive”.
Regarding `CCOC(=O)c1ccc(NC(=O)NC(C)C2CCCO2)cc1` (stereo not given), the activation entry was “inactive”.
On to `CCOc1ccc(S(=O)(=O)N2CCN(c3ccc(C)cc3C)CC2)cc1`, for which the activation result was “inactive”.
Same read-out and setting: the result for `Cc1ccc(Cl)cc1N1CCN(C(=O)CN2C(=O)c3cccc4cccc2c34)CC1` reads “inactive”; that for `COc1cccc(-c2nc(-c3ccc(NC(=O)Cc4ccccc4OC)cc3)no2)c1`, “inactive”; that for `N#Cc1ccccc1Cn1c(=O)n(Cc2ccc(C(=O)NCc3ccco3)cc2)c(=O)c2ccccc21`, “inactive”.
With `O=C(NCc1ccco1)c1cc2cc3ccc(Cl)cc3nc2o1`, the activation entry was “inactive”.
For `O=c1c2ccccc2sn1-c1ccc(S(=O)(=O)N2CCCCC2)cc1`, the activation result is “inactive”.
On the same count and under the same terms, the result for `CCN(CC)c1ccc2cc(C(=O)Nc3ccccn3)c(=O)oc2c1` reads “inactive”; that for `CC(C)(C)c1cc(-c2ccco2)c(C#N)c(SCC#N)n1`, “inactive”.
Turning to `N#Cc1nc(COc2ccc(Br)cc2)oc1N1CCN(Cc2ccccc2)CC1`, the activation entry was “inactive”.
Still for that read-out and setting: then `O=c1c(-c2ccc3c(c2)OCCO3)c(C(F)(F)F)oc2cc(O)cc(O)c12`, with “inactive”; and `CCCCC(=O)O[C@H]1CC[C@H]2[C@@H]3CCc4cc(O)ccc4[C@H]3CC[C@]12C`, with “inactive”; and `CCC(=O)Oc1ccc(C(CC)C(CC)c2ccc(OC(=O)CC)cc2)cc1` (stereo not given), with “inactive”.
Same read-out and setting: the result for `Cc1ccc(-c2nn(-c3ccccc3)cc2/C=C(\C#N)c2cccc(C#N)c2)o1` reads “inactive”; that for `Cc1c(C(=O)NC2CCCc3ccccc32)oc2ccc(S(=O)(=O)N3CCOCC3)cc12` (stereo not given), “inactive”.
The same measure, in the same setting: then `COc1cccc2c1C(=O)c1c(O)c3c(c(O)c1C2=O)C[C@@](O)(C(=O)CO)C[C@@H]3O[C@H]1C[C@H](N)[C@H](O)[C@H](C)O1`, with “inactive”; and `N#CCc1nc(CSc2nc3ccccc3s2)cs1`, with “inactive”.
Turning to `O=C(NCCSCc1ccco1)Nc1cccc(Cl)c1`, the activation entry was “inactive”.
Same read-out and setting: the result for `COc1ccc2cc(CN(Cc3ccco3)C(c3nnnn3C3CCCCC3)C(C)C)c(=O)[nH]c2c1` (stereo not given) reads “inactive”.
Still for that read-out and setting: then `N/C(=N\c1nc2ccccc2o1)NC(=O)c1ccccc1NC(=O)c1ccccc1`, with “inactive”; and `COc1ccc(-c2nnc(SCC(=O)Nc3ccc(Cl)cc3)n2C)cc1`, with “inactive”.
`O=C(c1ccc(Cl)cc1)N1CCCCC(Sc2nnc(-c3ccc4c(c3)OCO4)o2)C1=O` (stereo not given): the activation entry is “inactive”.
On the same count and under the same terms, the result for `N#CCSc1nc2c(c(=O)n1Cc1ccco1)C1(CCCC1)Cc1ccccc1-2` reads “inactive”; that for `COc1ccccc1NC(=O)c1oc2ccccc2c1NC(=O)c1cc(OC)c(OC)c(OC)c1`, “inactive”; that for `CC(=O)OC(C)C[N+](C)(C)C` (stereo not given), “inactive”.
